# pEC50: −log10 of the molar value. Like-named read-outs stand apart in the source and are kept apart here. *1 amine or outer side, *2 acyl side, *3 side chain or, on linkers, in order; H or OH if unused. Where a SMILES comes first, the peptide text is derived from it. Side-chain parts run from the residue outwards. [ ]: non-standard residue; d: D form. The star is where a group is joined. PEG24 = NCCOCCOCCOCCOCCOCCOCCOCCOCCOCCOCCOCCOCCOCCOCCOCCOCCOCCOCCOCCOCCOCCOCCOCCOCCC(=O)O; Bip(2'-Et-4'-O(CH2)4NH2) = CCc1cc(OCCCCN[*:3])ccc1-c1ccc(C[C@H](N[*:1])C(=O)[*:2])cc1; Bip(2'-Et,4'-O(CH2)4N3) = CCc1cc(OCCCCN=[N+]=[N-])ccc1-c1ccc(C[C@H](N)C(=O)O)cc1; Bip(2'-Et,4'-O(CH2)4NH2) = CCc1cc(OCCCCN)ccc1-c1ccc(C[C@H](N)C(=O)O)cc1; Malonyl(2,2-Me2,histaminyl) = CC(C)(C(=O)NCCc1cnc[nH]1)C(=O)*; PEG12 = NCCOCCOCCOCCOCCOCCOCCOCCOCCOCCOCCOCCOCCC(=O)O; Nva(5-(3,5-Me2Ph)) = Cc1cc(C)cc(CCC[C@H](N)C(=O)O)c1; Ala(1H-tetrazol-5-yl) = N[C@@H](Cc1nnn[nH]1)C(=O)O; αMePhe(2-F) = C[C@](N)(Cc1ccccc1F)C(=O)O; X9 = O=C([C@@H]1CCN(CCc2cnc[nH]2)C1)*; DBCO = C1#Cc2ccccc2N(*)Cc2ccccc21; Suc = O=C(CCC(=O)[*:2])[*:1]; X1 = O=C(CCCCCc1cnc[nH]1)*; X2 = CC(C)(C(N)=O)C(=O)*
# Columns and labels:
# HEK293/CRE-Luc cells = experiment: Luciferase reporter assay, HEK293/CRE-Luc cells without GLP1R (Example 17); type: cell-based, human
# Excerpt: (§1) To test the activity of GLP1R agonist payloads, GLP1R agonist linker-payloads (LPs), and anti-GLP1R antibody tethered drug conjugates (ATDCs) of the invention, a cell-based cAMP responsive luciferase reporter assay was developed. To generate the assay cell line, the firefly luciferase gene was placed under the control of a cAMP response element (CRE) located upstream of a minimal promoter and transfected into HEK293 cells and referred to herein as HEK293/CRE-Luc cells.
# (§2) Three-fold serial dilutions of free payloads or LPs were prepared in 100% DMSO, transferred to fresh assay media, and added to the cells at a final constant DMSO concentration of 0.2%. The last well in the plate served as a blank control containing only the assay media and 0.2% DMSO (untreated well) and was plotted as a continuation of the 3-fold serial dilution. Four to six hours later, luciferase activity was determined after the addition of One-Glo™ reagent (Promega, Cat #E6130) to each well. Relative light units (RLUs) were measured on an Envision luminometer (PerkinElmer) and EC50 values were determined using a four-parameter logistic equation over a 12-point dose response curve (GraphPad Prism). The signal to noise (S/N) was determined by taking the ratio of the highest RLU on the dose response curve to the RLU in the untreated wells. Data was generated across several experiments (A-E) with M2361 serving as a reference standard in each experiment to calculate the payload relative potency ((M2361 EC50/payload EC50)*100)) and relative S/N ((payload SN/M2361 SN)*100)).
# human GLP1R = human GLP1R (Homo sapiens, UniProt P43220); experiment: Luciferase reporter assay, HEK293/CRE-Luc/hGLP1R (Example 17); type: cell-based; parameters: engineered to express full-length human GLP1R, cynomolgus GLP1R; expressed in transfected cells; host or cells: HEK293/CRE-Luc; details: for S/N: highest RLU / RLU of untreated wells; for Relative Potency (% M2361 EC50) / Relative Signal:Noise (% M2361): relative to M2361 of the same experiment
# human GLP1R, sequence (P43220 24-463): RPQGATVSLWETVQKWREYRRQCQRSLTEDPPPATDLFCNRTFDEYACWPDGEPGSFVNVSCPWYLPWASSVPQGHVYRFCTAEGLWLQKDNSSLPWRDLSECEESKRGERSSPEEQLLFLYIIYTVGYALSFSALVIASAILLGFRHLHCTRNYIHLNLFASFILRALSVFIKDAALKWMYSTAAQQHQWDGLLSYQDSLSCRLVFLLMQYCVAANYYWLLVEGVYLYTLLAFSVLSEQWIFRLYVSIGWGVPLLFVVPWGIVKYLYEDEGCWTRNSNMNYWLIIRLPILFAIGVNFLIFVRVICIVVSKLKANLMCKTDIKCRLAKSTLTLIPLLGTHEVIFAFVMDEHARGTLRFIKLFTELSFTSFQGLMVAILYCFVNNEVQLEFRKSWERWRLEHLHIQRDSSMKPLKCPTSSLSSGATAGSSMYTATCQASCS
# Excerpt: as §1, §2
# [1] = HEK293/CRE-Luc cells without hGLP1R, payloads and linker-payloads
# [2] = HEK293/CRE-Luc cells without hGLP1R, payloads and linker-payloads, read-out: EC50
# [3] = HEK293/CRE-Luc/hGLP1R, payloads and linker-payloads, experiments A-E, M2361 repeated in each, read-out: EC50
# [4] = text b1830, read-out: EC50 in HEK293/CRE-Luc/hGLP1R cells
# [5] = Table 28, reporter cells without GLP1R, read-out: HEK293/CRE-Luc EC50
# [6] = Table 29, reporter cells without GLP1R, read-out: HEK293/CRE-Luc EC50
Molecule,S/N (HEK293/CRE-Luc cells; [1]),pEC50 (HEK293/CRE-Luc cells; [2]),S/N (human GLP1R; HEK293/CRE-Luc/hGLP1R),pEC50 (human GLP1R; [3]),Relative Potency (% M2361 EC50) (human GLP1R; HEK293/CRE-Luc/hGLP1R) [%],Relative Signal:Noise (% M2361) (human GLP1R; HEK293/CRE-Luc/hGLP1R) [%],pEC50 (human GLP1R; [4]),pEC50 (HEK293/CRE-Luc cells; [5]),pEC50 (HEK293/CRE-Luc cells; [6])
CCc1cc(OCCCCN)ccc1-c1ccc(C[C@H](NC(=O)[C@H](CC(=O)O)NC(=O)[C@H](CO)NC(=O)[C@@H](NC(=O)[C@](C)(Cc2ccccc2F)NC(=O)[C@@H](NC(=O)CNC(=O)[C@H](Cc2nn[nH]n2)NC(=O)C2(C)CCN(CCc3cnc[nH]3)C2=O)[C@@H](C)O)[C@@H](C)O)C(=O)N[C@@H](CCCc2cc(C)cc(C)c2)C(N)=O)cc1 (stereo in doubt) [P14],1.6,< 6.70,74.9,9.74,2.9,113.9,–,–,–
"CCc1cc(OCCCCNC(=O)CCOCCOCCOCCOCCOCCOCCOCCOCCOCCOCCOCCOCCNC(=O)CCC(=O)N2Cc3ccccc3C#Cc3ccccc32)ccc1-c1ccc(C[C@H](NC(=O)[C@H](CC(=O)O)NC(=O)[C@H](CO)NC(=O)[C@@H](NC(=O)[C@](C)(Cc2ccccc2F)NC(=O)[C@@H](NC(=O)CNC(=O)[C@H](Cc2nn[nH]n2)NC(=O)C(C)(C)C(=O)NCCc2cnc[nH]2)[C@@H](C)O)[C@@H](C)O)C(=O)N[C@@H](CCCc2cc(C)cc(C)c2)C(N)=O)cc1 [LP3, DIBAC-suc-PEG12-P9] ({Malonyl(2,2-Me2,histaminyl)}-[Ala(1H-tetrazol-5-yl)]GT[αMePhe(2-F)]TSD[Bip(2'-Et-4'-O(CH2)4NH2)]([PEG12-Suc-DBCO])[Nva(5-(3,5-Me2Ph))]-NH2)",–,–,293.2,10.01,28.0,124.3,–,–,–
"CCc1cc(OCCCCNC(=O)CCOCCOCCOCCOCCOCCOCCOCCOCCOCCOCCOCCOCCOCCOCCOCCOCCOCCOCCOCCOCCOCCOCCOCCOCCNC(=O)CCC(=O)N2Cc3ccccc3C#Cc3ccccc32)ccc1-c1ccc(C[C@H](NC(=O)[C@H](CC(=O)O)NC(=O)[C@H](CO)NC(=O)[C@@H](NC(=O)[C@](C)(Cc2ccccc2F)NC(=O)[C@@H](NC(=O)CNC(=O)[C@H](Cc2nn[nH]n2)NC(=O)C(C)(C)C(N)=O)[C@@H](C)O)[C@@H](C)O)C(=O)N[C@@H](CCCc2cc(C)cc(C)c2)C(N)=O)cc1 [LP13, DIBAC-suc-PEG24-P4] (X2-[Ala(1H-tetrazol-5-yl)]GT[αMePhe(2-F)]TSD[Bip(2'-Et-4'-O(CH2)4NH2)]([PEG24-Suc-DBCO])[Nva(5-(3,5-Me2Ph))]-NH2)",1.3,< 7.70,79.3,8.32,0.2,110.2,–,–,–
"CCc1cc(OCCCCNC(=O)[C@H](CO)NC(=O)CNC(=O)CNC(=O)CNC(=O)CNC(=O)CCC(=O)N2Cc3ccccc3C#Cc3ccccc32)ccc1-c1ccc(C[C@H](NC(=O)[C@H](CC(=O)O)NC(=O)[C@H](CO)NC(=O)[C@@H](NC(=O)[C@](C)(Cc2ccccc2F)NC(=O)[C@@H](NC(=O)CNC(=O)[C@H](Cc2nn[nH]n2)NC(=O)C(C)(C)C(N)=O)[C@@H](C)O)[C@@H](C)O)C(=O)N[C@@H](CCCc2cc(C)cc(C)c2)C(N)=O)cc1 [LP14, DIBAC- suc-G4S- P4]",1.3,< 7.70,78.1,9.44,2.2,108.6,–,–,–
"CCc1cc(OCCCCNC(=O)[C@H](CO)NC(=O)CNC(=O)CNC(=O)CNC(=O)CNC(=O)[C@H](CO)NC(=O)CNC(=O)CNC(=O)CNC(=O)CNC(=O)CCC(=O)N2Cc3ccccc3C#Cc3ccccc32)ccc1-c1ccc(C[C@H](NC(=O)[C@H](CC(=O)O)NC(=O)[C@H](CO)NC(=O)[C@@H](NC(=O)[C@](C)(Cc2ccccc2F)NC(=O)[C@@H](NC(=O)CNC(=O)[C@H](Cc2nn[nH]n2)NC(=O)C(C)(C)C(=O)NCCc2cnc[nH]2)[C@@H](C)O)[C@@H](C)O)C(=O)N[C@@H](CCCc2cc(C)cc(C)c2)C(N)=O)cc1 [LP17, DIBAC- suc-G4S- G4S-P9]",–,–,258.0,10.27,50.4,109.4,–,–,–
"CCc1cc(OCCCCN=[N+]=[N-])ccc1-c1ccc(C[C@H](NC(=O)[C@H](CC(=O)O)NC(=O)[C@H](CO)NC(=O)[C@@H](NC(=O)[C@](C)(Cc2ccccc2F)NC(=O)[C@@H](NC(=O)CNC(=O)[C@@H](N)Cc2nn[nH]n2)[C@@H](C)O)[C@@H](C)O)C(=O)N[C@@H](CCCc2cc(C)cc(C)c2)C(N)=O)cc1 [M2383] (H-[Ala(1H-tetrazol-5-yl)]GT[αMePhe(2-F)]TSD[Bip(2'-Et,4'-O(CH2)4N3)][Nva(5-(3,5-Me2Ph))]-NH2)",1.8,< 6.70,293.3,< 6.70,0.0,89.4,< 7.70,–,–
CCc1cc(OCCCCNC(=O)CCOCCOCCOCCOCCOCCOCCOCCOCCOCCOCCOCCOCCOCCOCCOCCOCCOCCOCCOCCOCCOCCOCCOCCOCCNC(=O)CCC(=O)N2Cc3ccccc3-c3nn[nH]c3-c3ccccc32)ccc1-c1ccc(C[C@H](NC(=O)[C@H](CC(=O)O)NC(=O)[C@H](CO)NC(=O)[C@@H](NC(=O)[C@](C)(Cc2ccccc2F)NC(=O)[C@@H](NC(=O)CNC(=O)[C@H](Cc2nn[nH]n2)NC(=O)C(C)(C)C(=O)NCCc2cnc[nH]2)[C@@H](C)O)[C@@H](C)O)C(=O)N[C@@H](CCCc2cc(C)cc(C)c2)C(C)=O)cc1 [M2547],–,–,267.8,–,38.6,81.7,–,–,–
"CCc1cc(OCCCCNC(=O)[C@H](CO)NC(=O)CNC(=O)CNC(=O)CNC(=O)CN)ccc1-c1ccc(C[C@H](NC(=O)[C@H](CC(=O)O)NC(=O)[C@H](CO)NC(=O)[C@@H](NC(=O)[C@](C)(Cc2ccccc2F)NC(=O)[C@@H](NC(=O)CNC(=O)[C@H](Cc2nn[nH]n2)NC(=O)C(C)(C)C(=O)NCCc2cnc[nH]2)[C@@H](C)O)[C@@H](C)O)C(=O)N[C@@H](CCCc2cc(C)cc(C)c2)C(N)=O)cc1 [M2739, G4S-P9]",–,–,282.1,11.00,193.4,86.0,–,–,–
CCc1cc(OCCCCN)ccc1-c1ccc(C[C@H](NC(=O)[C@H](CC(=O)O)NC(=O)[C@H](CO)NC(=O)[C@@H](NC(=O)[C@](C)(Cc2ccccc2F)NC(=O)[C@@H](NC(=O)CNC(=O)[C@@H](N)CCC(N)=O)[C@@H](C)O)[C@@H](C)O)C(=O)N[C@@H](CCCc2cc(C)cc(C)c2)C(N)=O)cc1 [M2913],1.1,< 6.70,3.2,–,0.0,4.9,–,–,–
"CCc1cc(OCCCCNC(=O)CCOCCOCCOCCOCCOCCOCCOCCOCCOCCOCCOCCOCCOCCOCCOCCOCCOCCOCCOCCOCCOCCOCCOCCOCCNC(=O)CCC(=O)N2Cc3ccccc3C#Cc3ccccc32)ccc1-c1ccc(C[C@H](NC(=O)[C@H](CC(=O)O)NC(=O)[C@H](CO)NC(=O)[C@@H](NC(=O)[C@](C)(Cc2ccccc2F)NC(=O)[C@@H](NC(=O)CNC(=O)[C@H](Cc2nn[nH]n2)NC(=O)CCCCCc2cnc[nH]2)[C@@H](C)O)[C@@H](C)O)C(=O)N[C@@H](CCCc2cc(C)cc(C)c2)C(N)=O)cc1 [M2944] (X1-[Ala(1H-tetrazol-5-yl)]GT[αMePhe(2-F)]TSD[Bip(2'-Et-4'-O(CH2)4NH2)]([PEG24-Suc-DBCO])[Nva(5-(3,5-Me2Ph))]-NH2)",–,–,–,< 7.70,–,–,< 7.70,–,–
"CCc1cc(OCCCCN)ccc1-c1ccc(C[C@H](NC(=O)[C@H](CC(=O)O)NC(=O)[C@H](CO)NC(=O)[C@@H](NC(=O)[C@](C)(Cc2ccccc2F)NC(=O)[C@@H](NC(=O)CNC(=O)[C@H](Cc2nn[nH]n2)NC(=O)[C@@H]2CCN(CCc3cnc[nH]3)C2)[C@@H](C)O)[C@@H](C)O)C(=O)N[C@@H](CCCc2cc(C)cc(C)c2)C(N)=O)cc1 [P17] (X9-[Ala(1H-tetrazol-5-yl)]GT[αMePhe(2-F)]TSD[Bip(2'-Et,4'-O(CH2)4NH2)][Nva(5-(3,5-Me2Ph))]-NH2)",1.0,< 6.70,–,–,–,–,–,–,–
GCG [reference compound],–,–,–,–,–,–,–,< 6.70,< 7.52
GIP [reference compound],–,–,–,–,–,–,–,< 6.70,< 7.52
GLP2 [reference compound],–,–,–,–,–,–,–,< 6.70,< 7.52
